# Test system: participants with SSc-RP
# Test: SHAQ - Visual Analog Scale - Breathing Problems
# Assay type: in vivo, human
# Set-up: Visual Analog Scale-Breathing Problems, In Clinic Visit (Day 12), Mean / Visual Analog Scale-Breathing Problems, In Clinic Visit (Day 12), Median / SHAQ Visual Analogue Scale - Breathing Problems, In-Clinic Visit (Day 12), Mean / SHAQ Visual Analogue Scale - Breathing Problems, In-Clinic Visit (Day 12), Median / SHAQ Visual Analogue Scale - Breathing Problems, Change from Baseline, Median: scale not given here
# Settings: for % improvement in Breathing: median, SHAQ, mITT Part A
# Description: The standard, validated, patient reported outcome measures tool for SSc patients, the Scleroderma Health Assessment Questionnaire (SHAQ), will be used to assess the participant qualify of life. Details are attached in the Appendix. The participant quality of life will be scored, and a disability index calculated for each questionnaire completed by the patient at Screening and each in-clinic visit. The absolute change in participant quality of life from baseline to the end of each dosing period will be calculated similar to frequency data as before.
# The standard, validated, patient reported outcome measures tool for SSc patients, the SHAQ, was collected at the time points specified in the study schedules (FIG. 2 and FIGS. 4A and 4B) to assess the participant's quality of life. The SHAQ included a Raynaud's VAS that will also be reported separately.
# [1] = Any Cilnidipine (N = 17), Day 12, PP Population, Part A, Subject 01-110 excluded
# [2] = Cilnidipine 10 mg, SSc patients, PP, Part A
# [3] = Cilnidipine 20 mg, SSc patients, PP, Part A
# [4] = Modified ITT Population-Part A, Day 12, dose cilnidipine 10 mg, tadalafil 5 mg, alone or combined as labelled
# [5] = Modified ITT Population-Part A, dose cilnidipine 20 mg, tadalafil 5 mg, alone or combined as labelled
# [6] = Pooled Cilnidipine (N = 8), Day 12, PP Population, Part A
# [7] = pooled Cilnidipine 10 mg and Cilnidipine 10 mg + Tadalafil 5 mg
# [8] = pooled Cilnidipine 20 mg and Cilnidipine 20 mg + Tadalafil 5 mg
# [9] = pooled cilnidipine 10 mg and 20 mg arms (combination: + tadalafil 5 mg)
smiles,measurement,setting,value
COCCOC(=O)C1=C(C)NC(C)=C(C(=O)OC/C=C/c2ccccc2)C1c1cccc([N+](=O)[O-])c1 (stereo not shown) [Cilnidipine],"SHAQ Visual Analogue Scale - Breathing Problems, Change from Baseline, Mean (SD)",[1],0.025 (1.2310)
same,"SHAQ Visual Analogue Scale - Breathing Problems, Change from Baseline, Median",[1],0.000
same,"SHAQ Visual Analogue Scale - Breathing Problems, In-Clinic Visit (Day 12), Mean (SD)",[1],1.388 (2.2783)
same,"SHAQ Visual Analogue Scale - Breathing Problems, In-Clinic Visit (Day 12), Median",[1],0.300
same,"SHAQ Visual Analogue Scale - Breathing Problems, Percent Change from Baseline, Mean (SD)",[1],50.12 (200.437) %
same,"SHAQ Visual Analogue Scale - Breathing Problems, Percent Change from Baseline, Median",[1],−16.00%
same,"SHAQ VAS Breathing Problems, Change from Baseline, Max",[2],0.00
same,"SHAQ VAS Breathing Problems, Change from Baseline, Mean",[2],−0.300
same,"SHAQ VAS Breathing Problems, Change from Baseline, Min",[2],"−1.20,"
same,"SHAQ VAS Breathing Problems, Change from Baseline, Q1",[2],"−0.600,"
same,"SHAQ VAS Breathing Problems, Change from Baseline, Q3",[2],0.000
same,"SHAQ VAS Breathing Problems, Day 12, Max",[2],6.30
same,"SHAQ VAS Breathing Problems, Day 12, Mean",[2],1.575
same,"SHAQ VAS Breathing Problems, Day 12, Min",[2],"0.00,"
same,"SHAQ VAS Breathing Problems, Day 12, Q1",[2],"0.000,"
same,"SHAQ VAS Breathing Problems, Percent Change from Baseline, Max",[2],−16.0
same,"SHAQ VAS Breathing Problems, Percent Change from Baseline, Mean",[2],−16.00
same,"SHAQ VAS Breathing Problems, Percent Change from Baseline, Median",[2],−16.00
same,"SHAQ VAS Breathing Problems, Percent Change from Baseline, Min",[2],"−16.0,"
same,"SHAQ VAS Breathing Problems, Percent Change from Baseline, Q1",[2],"−16.00,"
same,"SHAQ VAS Breathing Problems, Percent Change from Baseline, Q3",[2],−16.00
same,% improvement in Breathing,Cilnidipine 20 mg (n = 3),67% (median)
same,"SHAQ VAS Breathing Problems, Change from Baseline, Max",[3],0.60
same,"SHAQ VAS Breathing Problems, Change from Baseline, Median",[3],−0.250
same,"SHAQ VAS Breathing Problems, Change from Baseline, Min",[3],"−2.00,"
same,"SHAQ VAS Breathing Problems, Change from Baseline, Q1",[3],"−1.400,"
same,"SHAQ VAS Breathing Problems, Change from Baseline, Q3",[3],0.450
same,"SHAQ VAS Breathing Problems, Day 12, Max",[3],2.50
same,"SHAQ VAS Breathing Problems, Day 12, Mean",[3],0.850
same,"SHAQ VAS Breathing Problems, Day 12, Median",[3],0.450
same,"SHAQ VAS Breathing Problems, Day 12, Min",[3],"0.00,"
same,"SHAQ VAS Breathing Problems, Day 12, Q1",[3],"0.200,"
same,"SHAQ VAS Breathing Problems, Day 12, Q3",[3],1.500
same,"SHAQ VAS Breathing Problems, Percent Change from Baseline, Max",[3],150.0
same,"SHAQ VAS Breathing Problems, Percent Change from Baseline, Min",[3],"−100.0,"
same,"SHAQ VAS Breathing Problems, Percent Change from Baseline, Q1",[3],"−83.33,"
same,"SHAQ VAS Breathing Problems, Percent Change from Baseline, Q3",[3],90.79
same,"Visual Analog Scale-Breathing Problems, Change from Baseline, Mean",[4],−0.300
same,"Visual Analog Scale-Breathing Problems, Change from Baseline, Median",[4],0.000
same,"Visual Analog Scale-Breathing Problems, Percent Change from Baseline, Mean",[4],−16.00%
same,"Visual Analog Scale-Breathing Problems, Percent Change from Baseline, Median",[4],−16.00%
same,"Visual Analog Scale-Breathing Problems, Change from Baseline, Median","Modified ITT Population-Part A, Day 12, dose cilnidipine 20 mg, tadalafil 5 mg, alone or combined as labelled",−0.800
same,"Visual Analog Scale-Breathing Problems, In Clinic Visit (Day 12), Median","Modified ITT Population-Part A, dose cilnidipine 10 mg, tadalafil 5 mg, alone or combined as labelled",0.000
same,"Visual Analog Scale-Breathing Problems, In Clinic Visit (Day 12), Mean",[5],0.300
same,"Visual Analog Scale-Breathing Problems, In Clinic Visit (Day 12), Median",[5],0.400
same,"SHAQ Visual Analogue Scale - Breathing Problems, In-Clinic Visit (Day 12), Mean","Pooled Cilnidipine 20 mg and Cilnidipine 20 mg + Tadalafil 5 mg (N = 8), Day 12, PP Population, Part A",1.400
same,"SHAQ Visual Analogue Scale - Breathing Problems, Change from Baseline, Mean (SD)",[6],−0.388 (0.8725)
same,"SHAQ Visual Analogue Scale - Breathing Problems, In-Clinic Visit (Day 12), Mean (SD)",[6],1.213 (2.2229)
same,"SHAQ Visual Analogue Scale - Breathing Problems, In-Clinic Visit (Day 12), Median",[6],0.200
same,"SHAQ Visual Analogue Scale - Breathing Problems, Percent Change from Baseline, Mean (SD)",[6],−0.22 (97.721) %
same,% improvement in Breathing,Pooled Cilnidipine (n = 7),41% (median)
same,"% Δ from baseline, VAS Breathing mean",Pooled cilnidipine (n=4),−8.2%
same,VAS Breathing Problems Change from Baseline Max,[7],1.00
same,VAS Breathing Problems Change from Baseline Mean,[7],−0.175
same,VAS Breathing Problems Change from Baseline Median,[7],0.000
same,VAS Breathing Problems Change from Baseline Min,[7],−1.20
same,VAS Breathing Problems Change from Baseline Q1,[7],−0.600
same,VAS Breathing Problems Change from Baseline Q3,[7],0.000
same,VAS Breathing Problems Day 12 Max,[7],6.30
same,VAS Breathing Problems Day 12 Median,[7],0.000
same,VAS Breathing Problems Day 12 Min,[7],0.00
same,VAS Breathing Problems Day 12 Q1,[7],0.000
same,VAS Breathing Problems Day 12 Q3,[7],2.350
same,VAS Breathing Problems Percent Change from Baseline Max,[7],38.5%
same,VAS Breathing Problems Percent Change from Baseline Mean,[7],−26.05%
same,VAS Breathing Problems Percent Change from Baseline Median,[7],−21.33%
same,VAS Breathing Problems Percent Change from Baseline Min,[7],−100.0%
same,VAS Breathing Problems Percent Change from Baseline Q1,[7],−63.33%
same,VAS Breathing Problems Percent Change from Baseline Q3,[7],11.23%
same,VAS Breathing Problems Change from Baseline Max,[8],3.70
same,VAS Breathing Problems Change from Baseline Median,[8],0.000
same,VAS Breathing Problems Change from Baseline Min,[8],−2.00
same,VAS Breathing Problems Change from Baseline Q1,[8],−0.800
same,VAS Breathing Problems Change from Baseline Q3,[8],0.600
same,VAS Breathing Problems Day 12 Max,[8],6.90
same,VAS Breathing Problems Day 12 Median,[8],0.400
same,VAS Breathing Problems Day 12 Min,[8],0.00
same,VAS Breathing Problems Day 12 Q1,[8],0.000
same,VAS Breathing Problems Day 12 Q3,[8],0.700
same,VAS Breathing Problems Percent Change from Baseline Max,[8],600.0%
same,VAS Breathing Problems Percent Change from Baseline Min,[8],−100.0%
same,VAS Breathing Problems Percent Change from Baseline Q1,[8],−75.00%
same,VAS Breathing Problems Percent Change from Baseline Q3,[8],150.00%
same,VAS Breathing Problems Change from Baseline Max,[9],0.30
same,VAS Breathing Problems Change from Baseline Median,[9],0.000
same,VAS Breathing Problems Change from Baseline Min,[9],−2.00
same,VAS Breathing Problems Change from Baseline Q1,[9],−1.200
same,VAS Breathing Problems Change from Baseline Q3,[9],0.000
same,VAS Breathing Problems Day 12 Max,[9],6.30
same,VAS Breathing Problems Day 12 Median,[9],0.000
same,VAS Breathing Problems Day 12 Min,[9],0.00
same,VAS Breathing Problems Day 12 Q1,[9],0.000
same,VAS Breathing Problems Day 12 Q3,[9],0.500
same,VAS Breathing Problems Percent Change from Baseline Max,[9],150.0%
same,VAS Breathing Problems Percent Change from Baseline Mean,[9],−8.17%
same,VAS Breathing Problems Percent Change from Baseline Median,[9],−41.33%
same,VAS Breathing Problems Percent Change from Baseline Min,[9],−100.0%

# From patent US20240358692A1, “TREATMENT OF SCLERODERMA” (Aisa Pharma, Inc., priority 2023, published 2024)
